Results as given in publication PMC10616469, “Pharmacokinetics and tissue distribution of four major bioactive components of Cynanchum auriculatum extract: a UPLC–MS/MS study in normal and functional dyspepsia rats” (Frontiers in Pharmacology, 2023).
Where two headings read alike, the source gives them in different places.

Tests used:
[1] = PK study: plasma pharmacokinetics after oral administration of CA extract in normal and FD rats (UPLC-MS/MS); type: in vivo; settings: Sprague-Dawley, rat, oral CA extract (0.10 g/mL solution, 10 mL/kg); for AUC(0-inf) / AUC(0-t) / CL/F / Cmax / half-life: n = 6; for Tmax: n = 6, read-out: Tmax; for Vd/F: n = 6, read-out: Vz/F
Protocol: For PK experiments, an appropriate amount of the CA extract was weighed to prepare a 0.10 g/mL solution using physiological saline. Briefly, 12 SD rats were randomly assigned to normal and FD groups and were orally administered the prepared CA sample (10 mL/kg body weight). For assessment, 0.3 mL of blood was collected into heparinized tubes via the caudal vein before dosing and at 2, 5, 10, 15, 20, 30, and 45 min, and 1, 2, 4, 8, 12, 24, and 48 h after administration. Blood samples were then immediately centrifuged at 4,500 rpm for 15 min, and the obtained plasma samples were stored at −20°C until determination.
The PK parameters were analyzed using the non–compartment analysis using the WinNonLin 8.2 software (Phoenix, United States). All the data were expressed as mean ± standard deviation (SD). The normal and FD groups were compared using independent samples t–test in SPSS 22.0. Results with p values < 0.05 were considered statistically significant.

[2] = Stability of the four compounds in plasma samples (QC samples); settings: n = 5
Protocol: In a 1.5 mL EP tube, 100 μL of plasma sample was mixed with 10 µL 1% formic acid–water, 10 μL IS (0.2011 μg/mL), and 400 μL acetonitrile. The mixture was then vortexed for 5 min, followed by sonication for 10 min at 40 kHz and centrifugation at 14,000 rpm for 10 min. The supernatant obtained was transferred to another tube and evaporated to dryness under a nitrogen vacuum at 37°C. The residue obtained was reconstituted with 150 μL of the initial mobile phase, and the centrifugation process was repeated. The supernatant thus obtained was then used for further analysis.
Similarly, QC samples of three concentrations (low, medium, and high) were prepared.
The specificity of the method was evaluated by comparing the retention times of analytes and IS in the blank matrix, blank matrix spiked with the four analytes and IS, and the samples after oral administration of CA extract. Calibration curves were constructed by comparing the ratio of peak areas of the four analytes to that of IS versus the concentration of the four analytes. Calibration curves were fitted via linear weighted (1/X ^ 2 ) least–squares regression. The intra–and inter–day precision and accuracy were estimated by analyzing QC samples at different concentrations on the same day and three consecutive validation days, respectively. The extraction recovery was evaluated by determining the peak area of analytes in QC samples compared with that in extracted matrix samples. The relative standard deviation of the extraction recovery of analytes at each level was retained at ≤20.0%. The following parameters of stability were assessed: short–term stability (24 h at room temperature), processed sample stability (24 h at 4°C), freeze–thaw stability (3 cycles), and auto–sampler stability (6 h at room temperature). QC samples of different concentrations were used for stability analysis.

[3] = Tissue distribution study after oral administration of CA extract in normal and FD rats
Protocol: UPLC–MS/MS analysis was conducted using the ACQUITY UPLC system (Waters Corp., Milford, MA, United States) equipped with a Xevo–TQ mass spectrometer (Waters Corp., Milford, MA, United States) with an electrospray ionization (ESI) interface and triple quadrupole mass analyzer.
The ACQUITY UPLC® BEH C18 column (2.1 mm × 50 mm, 1.7 μm, Waters, United States) was used for separation and was maintained at 40°C. The mobile phase consisted of 0.1% formic acid in water (A) and 0.1% formic acid–acetonitrile (B) for PK study and 0.2% formic acid in water (A) and 0.2% formic acid–acetonitrile (B) for tissue distribution study. The mobile phase was eluted as a gradient, as follows: 0–0.5 min, 10% B; 0.5–3.0 min, 15% B; 3.0–3.2 min, 25% B; 3.2–4.0 min, 30% B; 4.0–4.5 min, 32% B; 4.5–6.0 min, 90% B; and 6.0 min, 10% B. The flow rate was set at 0.35 mL/min and the injection volume was 2 μL for the PK study and 1 μL for the tissue distribution study.
The four active components of CA were quantified using multiple reaction monitoring under negative ion mode. The following m/z transitions were chosen for quantification: baishouwu benzophenone 301.00→283.00, deacylmetaplexigenin 379.15→361.20, qingyangshengenin 499.20→137.00, syringic acid 197.20→181.95, and puerarin (internal standard, IS) 415.10→267.05. The collision energy was 15, 15, 35, 15, and 35 V, respectively ([Sun et al., 2022]). ESI mode was operated under the following conditions: capillary voltage, 1 kV; desolvation gas (N2), 1000 L/h; collision gas (Ar2), 150 L/h; desolvation temperature, 400°C; and source temperature, 120°C.
Additionally, stomach and small intestinal tissues were diluted three times to obtain a tissue homogenate. Then, 300 μL of this tissue homogenate was mixed with 30 μL 1% formic acid-water, 20 μL IS, and 1.2 mL acetonitrile. The mixture was then vortexed for 5 min, sonicated for 10 min, and then stored at −20°C for 30 min. Subsequently, the mixture was centrifuged at 14,000 rpm for 10 min. The supernatant obtained was then transferred to another tube and evaporated to dryness at 37°C under nitrogen. The dried residue was reconstituted with 200 μL of the 50% methanol–water, and the centrifugation process was repeated. The obtained supernatant was then used for further analysis.
SD rats were randomly divided into normal and FD groups (n = 30 each) and orally administered 10 mL/kg of CA extract solution. The rats were sacrificed at 10, 30 min, 1, 2, and 4 h after administration (6 rats per time point). Subsequently, their heart, liver, spleen, lung, kidney, brain, small intestine, and stomach were removed. The tissue samples were then washed in saline solution and wiped with filter paper. Subsequently, all tissues were stored at −80°C until analysis.

[4] = high QC (nominal 1666.00 / 3172.53 / 569.17 / 206.21 ng·mL^-1)
[5] = low QC (nominal 52.06 / 49.57 / 8.89 / 1.61 ng·mL^-1)
[6] = medium QC (nominal 208.25 / 396.57 / 71.13 / 25.78 ng·mL^-1)

- AUC(0-inf) ([1]; FD group rats): 1.17 ± 0.357 µg·h/mL
- AUC(0-t) ([1]; FD group rats): 0.498 ± 0.109 µg·h/mL
- CL/F ([1]; FD group rats): 0.11 L/h/kg
- Cmax ([1]; FD group rats): 0.0674 ± 0.003 µg/mL
- half-life ([1]; FD group rats): 37.7 ± 12.6 h
- Tmax ([1]; FD group rats): 0.25 ± 0.04 h
- Vd/F ([1]; FD group rats): 5.49 ± 0.69 L/kg
- AUC(0-inf) ([1]; Normal group rats): 1.15 ± 0.153 µg·h/mL
- AUC(0-t) ([1]; Normal group rats): 0.523 ± 0.0543 µg·h/mL
- CL/F ([1]; Normal group rats): 0.1 L/h/kg
- Cmax ([1]; Normal group rats): 0.0722 ± 0.00674 µg/mL
- half-life ([1]; Normal group rats): 34.5 ± 6.73 h
- Tmax ([1]; Normal group rats): 0.24 ± 0.03 h
- Vd/F ([1]; Normal group rats): 5.07 ± 0.74 L/kg
- Measured concentration, 4°C for 24 h [2, 4]: 185.91 ± 1.51 ng/mL
- Measured concentration, Room temperature for 24 h [2, 4]: 196.89 ± 6.85 ng/mL
- Measured concentration, Three freeze-thaw cycles [2, 4]: 198.43 ± 6.85 ng/mL
- Measured concentration, 4°C for 24 h [2, 5]: 1.47 ± 0.10 ng/mL
- Measured concentration, Three freeze-thaw cycles [2, 5]: 1.42 ± 0.18 ng/mL
- Measured concentration, 4°C for 24 h [2, 6]: 22.75 ± 1.62 ng/mL
- Measured concentration, Room temperature for 24 h [2, 6]: 23.14 ± 1.80 ng/mL
- Measured concentration, Three freeze-thaw cycles [2, 6]: 23.32 ± 1.20 ng/mL
- detection in the brain ([3]; rat brain): not detected
- time after dosing at which eliminated in all tissues ([3]; rat tissues): 1 h
- tissue with higher distribution ([3]; rats): stomach
SMILES: COc1cc(C(=O)O)cc(OC)c1O [Syringic acid]
